# From PubChem BioAssay (NCI)
#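 96-well plates; 48 h exposure; 5 concentrations. Endpoints by linear interpolation between flanking doses. Not reached: highest tested concentration assigned. GI50 = concentration required for 50% inhibition of growth. At the TGI there is no net growth.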
# What was measured:
# Experiment in all cases: NCI tumour cell line growth inhibition, 48 h
# SF-268 CNS = tested on: SF-268 CNS
# RPMI-8226 leukemia = tested on: RPMI-8226 leukemia
# COLO 205 colon = tested on: COLO 205 colon
# HCC-2998 colon = tested on: HCC-2998 colon
# NCI/ADR-RES ovarian = tested on: NCI/ADR-RES ovarian
# T-47D breast = tested on: T-47D breast
# 786-0 renal = tested on: 786-0 renal
# HL-60(TB) leukemia = tested on: HL-60(TB) leukemia
# MALME-3M melanoma = tested on: MALME-3M melanoma
# SK-OV-3 ovarian = tested on: SK-OV-3 ovarian
# ACHN renal = tested on: ACHN renal
# SNB-75 CNS = tested on: SNB-75 CNS
# SF-295 CNS = tested on: SF-295 CNS
# SN12C renal = tested on: SN12C renal
# MCF7 breast = tested on: MCF7 breast
# K-562 leukemia = tested on: K-562 leukemia
# BT-549 breast = tested on: BT-549 breast
# SR leukemia = tested on: SR leukemia
# PC-3 prostate = tested on: PC-3 prostate
# SW-620 colon = tested on: SW-620 colon
# DU-145 prostate = tested on: DU-145 prostate
# LOX IMVI melanoma = tested on: LOX IMVI melanoma
# HS 578T breast = tested on: HS 578T breast
# SK-MEL-5 melanoma = tested on: SK-MEL-5 melanoma
# HT29 colon = tested on: HT29 colon
# SNB-19 CNS = tested on: SNB-19 CNS
# OVCAR-4 ovarian = tested on: OVCAR-4 ovarian
# UO-31 renal = tested on: UO-31 renal
# NCI-H522 lung = tested on: NCI-H522 lung
# UACC-257 melanoma = tested on: UACC-257 melanoma
# RXF 393 renal = tested on: RXF 393 renal
# EKVX NSCLC = tested on: EKVX NSCLC
# A498 renal = tested on: A498 renal
# OVCAR-3 ovarian = tested on: OVCAR-3 ovarian
# MOLT-4 leukemia = tested on: MOLT-4 leukemia
# HCT-116 colon = tested on: HCT-116 colon
# MDA-MB-231 breast = tested on: MDA-MB-231 breast
# NCI-H460 lung = tested on: NCI-H460 lung
# IGROV1 ovarian = tested on: IGROV1 ovarian
# SF-539 CNS = tested on: SF-539 CNS
# KM12 colon = tested on: KM12 colon
# MDA-MB-435 = tested on: MDA-MB-435
# NCI-H226 lung = tested on: NCI-H226 lung
# UACC-62 melanoma = tested on: UACC-62 melanoma
# CAKI-1 renal = tested on: CAKI-1 renal
# SK-MEL-2 melanoma = tested on: SK-MEL-2 melanoma
# U251 CNS = tested on: U251 CNS
# HCT-15 colon = tested on: HCT-15 colon
# M14 melanoma = tested on: M14 melanoma
# OVCAR-5 ovarian = tested on: OVCAR-5 ovarian
# HOP-62 NSCLC = tested on: HOP-62 NSCLC
# CCRF-CEM leukemia = tested on: CCRF-CEM leukemia
# NCI-H23 lung = tested on: NCI-H23 lung
# HOP-92 NSCLC = tested on: HOP-92 NSCLC
# A549 NSCLC = tested on: A549 NSCLC
# OVCAR-8 ovarian = tested on: OVCAR-8 ovarian
# TK-10 renal = tested on: TK-10 renal
structure (smiles),measurement,setting,value
CCN1CCN(CCOc2ccc(CNc3ccc4nc(CCC5CCCCC5)[nH]c4c3)cc2)CC1,GI50,SF-268 CNS,2000 nM
same,TGI,SF-268 CNS,5160 nM
same,GI50,RPMI-8226 leukemia,1430 nM
same,TGI,RPMI-8226 leukemia,3790 nM
same,GI50,COLO 205 colon,1760 nM
same,TGI,COLO 205 colon,3520 nM
same,GI50,HCC-2998 colon,2220 nM
same,TGI,HCC-2998 colon,5070 nM
same,GI50,NCI/ADR-RES ovarian,3110 nM
same,TGI,NCI/ADR-RES ovarian,11200 nM
same,GI50,T-47D breast,1930 nM
same,TGI,T-47D breast,5410 nM
same,GI50,786-0 renal,1570 nM
same,TGI,786-0 renal,3390 nM
same,GI50,HL-60(TB) leukemia,1870 nM
same,TGI,HL-60(TB) leukemia,3920 nM
same,GI50,MALME-3M melanoma,1570 nM
same,TGI,MALME-3M melanoma,3080 nM
same,GI50,SK-OV-3 ovarian,2280 nM
same,TGI,SK-OV-3 ovarian,5160 nM
same,GI50,ACHN renal,2790 nM
same,TGI,ACHN renal,7960 nM
same,GI50,SNB-75 CNS,1660 nM
same,TGI,SNB-75 CNS,4070 nM
same,GI50,SF-295 CNS,1990 nM
same,TGI,SF-295 CNS,3950 nM
same,GI50,SN12C renal,2720 nM
same,TGI,SN12C renal,11000 nM
same,GI50,MCF7 breast,1800 nM
same,TGI,MCF7 breast,5840 nM
same,GI50,K-562 leukemia,420 nM
same,TGI,K-562 leukemia,2690 nM
same,GI50,BT-549 breast,1580 nM
same,TGI,BT-549 breast,3040 nM
same,GI50,SR leukemia,303 nM
same,TGI,SR leukemia,941 nM
same,GI50,PC-3 prostate,2020 nM
same,TGI,PC-3 prostate,5890 nM
same,GI50,SW-620 colon,1910 nM
same,TGI,SW-620 colon,4140 nM
same,GI50,DU-145 prostate,3910 nM
same,TGI,DU-145 prostate,14000 nM
same,GI50,LOX IMVI melanoma,1710 nM
same,TGI,LOX IMVI melanoma,3150 nM
same,GI50,HS 578T breast,1610 nM
same,TGI,HS 578T breast,4850 nM
same,GI50,SK-MEL-5 melanoma,1730 nM
same,TGI,SK-MEL-5 melanoma,3170 nM
same,GI50,HT29 colon,563 nM
same,TGI,HT29 colon,2380 nM
same,GI50,SNB-19 CNS,3580 nM
same,TGI,SNB-19 CNS,13000 nM
same,GI50,OVCAR-4 ovarian,2610 nM
same,TGI,OVCAR-4 ovarian,11100 nM
same,GI50,UO-31 renal,1420 nM
same,TGI,UO-31 renal,2790 nM
same,GI50,NCI-H522 lung,2440 nM
same,TGI,NCI-H522 lung,5950 nM
same,GI50,UACC-257 melanoma,1850 nM
same,TGI,UACC-257 melanoma,4120 nM
same,GI50,RXF 393 renal,1300 nM
same,TGI,RXF 393 renal,3310 nM
same,GI50,EKVX NSCLC,2250 nM
same,TGI,EKVX NSCLC,9150 nM
same,GI50,A498 renal,1440 nM
same,TGI,A498 renal,3350 nM
same,GI50,OVCAR-3 ovarian,1890 nM
same,TGI,OVCAR-3 ovarian,4340 nM
same,GI50,MOLT-4 leukemia,1870 nM
same,TGI,MOLT-4 leukemia,6090 nM
same,GI50,HCT-116 colon,1320 nM
same,TGI,HCT-116 colon,2870 nM
same,GI50,MDA-MB-231 breast,1600 nM
same,TGI,MDA-MB-231 breast,3110 nM
same,GI50,NCI-H460 lung,2470 nM
same,TGI,NCI-H460 lung,7270 nM
same,GI50,IGROV1 ovarian,2830 nM
same,TGI,IGROV1 ovarian,11000 nM
same,GI50,SF-539 CNS,1570 nM
same,TGI,SF-539 CNS,3000 nM
same,GI50,KM12 colon,2960 nM
same,TGI,KM12 colon,9820 nM
same,GI50,MDA-MB-435,1780 nM
same,TGI,MDA-MB-435,3730 nM
same,GI50,NCI-H226 lung,1990 nM
same,TGI,NCI-H226 lung,4940 nM
same,GI50,UACC-62 melanoma,1930 nM
same,TGI,UACC-62 melanoma,3520 nM
same,GI50,CAKI-1 renal,2010 nM
same,TGI,CAKI-1 renal,4110 nM
same,GI50,SK-MEL-2 melanoma,1920 nM
same,TGI,SK-MEL-2 melanoma,3770 nM
same,GI50,U251 CNS,1490 nM
same,TGI,U251 CNS,3160 nM
same,GI50,HCT-15 colon,1430 nM
same,TGI,HCT-15 colon,3410 nM
same,GI50,M14 melanoma,1680 nM
same,TGI,M14 melanoma,3290 nM
same,GI50,OVCAR-5 ovarian,2330 nM
same,TGI,OVCAR-5 ovarian,7180 nM
same,GI50,HOP-62 NSCLC,1990 nM
same,TGI,HOP-62 NSCLC,4630 nM
same,GI50,CCRF-CEM leukemia,1610 nM
same,TGI,CCRF-CEM leukemia,8750 nM
same,GI50,NCI-H23 lung,2380 nM
same,TGI,NCI-H23 lung,6940 nM
same,GI50,HOP-92 NSCLC,925 nM
same,TGI,HOP-92 NSCLC,3090 nM
same,GI50,A549 NSCLC,2610 nM
same,TGI,A549 NSCLC,8130 nM
same,GI50,OVCAR-8 ovarian,2450 nM
same,TGI,OVCAR-8 ovarian,7040 nM
same,GI50,TK-10 renal,2930 nM
same,TGI,TK-10 renal,8060 nM
